Source: PMC11943016, “TBG096 Ameliorates Memory Deficiency in AD Mouse Model via Promoting Neurogenesis and Regulation of Hsc70/HK2/PKM2/LAMP2A Signaling Pathway” (International Journal of Molecular Sciences, 2025)

System: HFD-induced AD mice
Assay: Behavioral tests (Y-maze, NOR, MWM) in HFD-induced AD mice
Format: in vivo
Source text: In experiments with the HFD-induced AD mouse model, a total of 60 Institute of Cancer Research (ICR) male mice aged 4 weeks from Zhejiang Academy of Medical Sciences (Hangzhou, China) were used for animal experiments (permit number: ZJU20230121). The animals were provided free access to a chow diet and water. […] The HFD and normal diet were alternated every two days to maintain freshness. Weekly measurements were taken for water intake, food intake, and body weight. In the eighteenth week, the mice underwent Y-maze and NOR tests. The Morris water maze test was conducted during the nineteenth week. After confirming the successful establishment of the AD model characterized by cognitive impairment, oral administration of treatments commenced. […] Each group had 10 mice.
The Y-maze test is used to evaluate working memory, and the process was referenced in another report. In brief, the Y-maze consists of three black plastic arms (A, B, and C) with the same length (30 cm), width (10 cm), height (15 cm), and 120° relative to adjacent arms. Each mouse is placed facing the wall of arm A and allowed to explore the maze freely for 5 min. The behavior of mice is recorded with a video recorder, and the data are stored in ANY-MAZE software version 6.35 (Stoelting, Chicago, IL, USA). The total number of entries made by the mice into each arm—considered as either whole or half-body entries—is recorded. An alternation is defined as a mouse moving through all three arms without returning to the initial arm on the third visit. Alternation: number of alternations/(number of arm entries − 2) × 100%.
The NOR test is utilized to assess the working memory capabilities of mice. The NOR apparatus consists of an open, black plastic box, two identical objects, and one novel object. The activity of the mice within the open field is captured and recorded using a video recorder, with data subsequently stored in ANY-MAZE software. The test is conducted over a span of two days, incorporating habituation, training, and testing stages. During the habituation phase, the mice are placed in the box devoid of any objects, allowing them to explore freely for a duration of five min. Following a 24 h interval, the NOR test is administered, which consists of both the training and testing phases. In the training phase, each mouse is positioned in the central area of the box, where two identical objects are placed equidistant from the mouse. Each training session lasts for five minutes. After a one-hour break, one of the identical objects is replaced with a new, distinct object, and the exploration duration for each mouse is recorded. Exploration is defined by the time a mouse spends touching or sniffing an object. The exploration times during both the training and testing phases are documented via video recording, and the data are organized within ANY-MAZE software. The object recognition index was defined as follows: (time spent on the new object)/(time spent on the old object + time spent on the new object) × 100%. The data are calculated by ANY-MAZE software.
The MWM test is used to measure spatial memory and long-term memory. The whole MWM equipment includes a circular water tank (diameter 1.5 m, depth 50 cm) with warm water (22 ± 1 °C) 35 cm deep, a platform (diameter 14 cm, immersed 1 cm in water), a camera, and a computer for data analysis. The MWM test is conducted over five 5 days: 4 days for training and 1 day for testing. The pool is divided into four quadrants, and at least three quadrants are tested at a time. In the training stage, the mouse is placed on the wall of one of the four quadrants and allowed to swim and find the platform hidden underwater within 120 s. If the mouse cannot find the platform, the experimenter will guide it and let it stay on the platform for 10 s. The experiment lasts for 4 days. On the fifth day of the test phase, the platform is removed, and each mouse is placed in a similar starting position and allowed to move freely for 90 s. […]

SMILES: O=C(SCCCCCCSCCCC(F)(F)F)c1cccc(O)c1O [TBG096]
- alternation behavior, Y-maze test (0.1, 5, and 20 mg/kg, vs HFD-only, 20 mg/kg most pronounced): significantly improved
- optimal dose in NOR test (HFD-induced AD mice): 5 mg/kg
- dosage of optimal therapeutic effect on memory (HFD-induced AD mice, comparable to Met): 20 mg/kg
- number of arm entries, Y-maze test (TBG096 0.1, 5, 20 mg/kg, Met 140 mg/kg, 54 days): No significant differences
- escape latency, MWM test phase (fifth day): significant reductions
- escape latency, MWM training phase (fourth day, Met 140 mg/kg and all doses of TBG096): markedly reduced
- discrimination index, NOR test phase (vs HFD-only group): higher
- number of platform crossings, MWM test phase (vs HFD-only group): increased significantly
